PubChem BioAssay (NCI)
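Step 1: Grow cells in 96-well plates. Step 2: Expose to compound for 48 hours at 5 concentrations. Step 3: Interpolate endpoints linearly; if unreached, use highest concentration. GI50: concentration for 50% inhibition of growth. TGI: total growth inhibition.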

Experiments:
Test in all cases: NCI tumour cell line growth inhibition, 48 h
SK-OV-3 ovarian = test system: SK-OV-3 ovarian
SNB-75 CNS = test system: SNB-75 CNS
KM12 colon = test system: KM12 colon
HCT-116 colon = test system: HCT-116 colon
BT-549 breast = test system: BT-549 breast
HCC-2998 colon = test system: HCC-2998 colon
SK-MEL-2 melanoma = test system: SK-MEL-2 melanoma
OVCAR-4 ovarian = test system: OVCAR-4 ovarian
SK-MEL-28 melanoma = test system: SK-MEL-28 melanoma
MOLT-4 leukemia = test system: MOLT-4 leukemia
HOP-62 NSCLC = test system: HOP-62 NSCLC
MDA-MB-435 = test system: MDA-MB-435
IGROV1 ovarian = test system: IGROV1 ovarian
SN12C renal = test system: SN12C renal
DU-145 prostate = test system: DU-145 prostate
HS 578T breast = test system: HS 578T breast
A549 NSCLC = test system: A549 NSCLC
SF-268 CNS = test system: SF-268 CNS
MALME-3M melanoma = test system: MALME-3M melanoma
NCI-H460 lung = test system: NCI-H460 lung
MDA-MB-231 breast = test system: MDA-MB-231 breast
RXF 393 renal = test system: RXF 393 renal
K-562 leukemia = test system: K-562 leukemia
PC-3 prostate = test system: PC-3 prostate
SR leukemia = test system: SR leukemia
ACHN renal = test system: ACHN renal
SNB-19 CNS = test system: SNB-19 CNS
CAKI-1 renal = test system: CAKI-1 renal
RPMI-8226 leukemia = test system: RPMI-8226 leukemia
UACC-257 melanoma = test system: UACC-257 melanoma
OVCAR-8 ovarian = test system: OVCAR-8 ovarian
COLO 205 colon = test system: COLO 205 colon
HOP-92 NSCLC = test system: HOP-92 NSCLC
EKVX NSCLC = test system: EKVX NSCLC
SK-MEL-5 melanoma = test system: SK-MEL-5 melanoma
OVCAR-5 ovarian = test system: OVCAR-5 ovarian
T-47D breast = test system: T-47D breast
MCF7 breast = test system: MCF7 breast
TK-10 renal = test system: TK-10 renal
UO-31 renal = test system: UO-31 renal
SF-295 CNS = test system: SF-295 CNS
A498 renal = test system: A498 renal
NCI-H226 lung = test system: NCI-H226 lung
CCRF-CEM leukemia = test system: CCRF-CEM leukemia
HT29 colon = test system: HT29 colon
HCT-15 colon = test system: HCT-15 colon
UACC-62 melanoma = test system: UACC-62 melanoma
NCI/ADR-RES ovarian = test system: NCI/ADR-RES ovarian
NCI-H23 lung = test system: NCI-H23 lung
786-0 renal = test system: 786-0 renal
SW-620 colon = test system: SW-620 colon
SF-539 CNS = test system: SF-539 CNS
U251 CNS = test system: U251 CNS
M14 melanoma = test system: M14 melanoma
NCI-H522 lung = test system: NCI-H522 lung
LOX IMVI melanoma = test system: LOX IMVI melanoma
HL-60(TB) leukemia = test system: HL-60(TB) leukemia

Structure (SMILES): Cn1ccnc1C(=O)/C=C/c1ccc(CNC(=O)c2ccc(Cl)cc2)cc1
- GI50 (SK-OV-3 ovarian): 5.05 µM
- TGI (SK-OV-3 ovarian): > 14.3 µM
- GI50 (SNB-75 CNS): 2.41 µM
- TGI (SNB-75 CNS): 10.3 µM
- GI50 (KM12 colon): 2.13 µM
- TGI (KM12 colon): 4.19 µM
- GI50 (HCT-116 colon): 2.28 µM
- TGI (HCT-116 colon): 5.05 µM
- GI50 (BT-549 breast): 2.23 µM
- TGI (BT-549 breast): 4.65 µM
- GI50 (HCC-2998 colon): 2.26 µM
- TGI (HCC-2998 colon): 4.5 µM
- GI50 (SK-MEL-2 melanoma): 3.42 µM
- TGI (SK-MEL-2 melanoma): 10.8 µM
- GI50 (OVCAR-4 ovarian): 3.44 µM
- TGI (OVCAR-4 ovarian): > 14.3 µM
- GI50 (SK-MEL-28 melanoma): 2.53 µM
- TGI (SK-MEL-28 melanoma): 5.31 µM
- GI50 (MOLT-4 leukemia): 3.82 µM
- TGI (MOLT-4 leukemia): 12.4 µM
- GI50 (HOP-62 NSCLC): 2.43 µM
- TGI (HOP-62 NSCLC): 5.96 µM
- GI50 (MDA-MB-435): 2.73 µM
- TGI (MDA-MB-435): 6.37 µM
- GI50 (IGROV1 ovarian): 2.62 µM
- TGI (IGROV1 ovarian): 7.73 µM
- GI50 (SN12C renal): 3.29 µM
- TGI (SN12C renal): 11.4 µM
- GI50 (DU-145 prostate): 2.2 µM
- TGI (DU-145 prostate): 4.23 µM
- GI50 (HS 578T breast): 4.3 µM
- TGI (HS 578T breast): > 14.3 µM
- GI50 (A549 NSCLC): 3.6 µM
- TGI (A549 NSCLC): > 14.3 µM
- GI50 (SF-268 CNS): 2.38 µM
- TGI (SF-268 CNS): 6.27 µM
- GI50 (MALME-3M melanoma): 2.84 µM
- TGI (MALME-3M melanoma): 8.12 µM
- GI50 (NCI-H460 lung): 2.61 µM
- TGI (NCI-H460 lung): 6.31 µM
- GI50 (MDA-MB-231 breast): 3.36 µM
- TGI (MDA-MB-231 breast): 14.2 µM
- GI50 (RXF 393 renal): 2.07 µM
- TGI (RXF 393 renal): 4.56 µM
- GI50 (K-562 leukemia): 2.2 µM
- TGI (K-562 leukemia): > 14.3 µM
- GI50 (PC-3 prostate): 2.8 µM
- TGI (PC-3 prostate): 7.18 µM
- GI50 (SR leukemia): 0.626 µM
- TGI (SR leukemia): > 14.3 µM
- GI50 (ACHN renal): 2.98 µM
- TGI (ACHN renal): 7.42 µM
- GI50 (SNB-19 CNS): 2.15 µM
- TGI (SNB-19 CNS): 5.37 µM
- GI50 (CAKI-1 renal): 3.34 µM
- TGI (CAKI-1 renal): > 14.3 µM
- GI50 (RPMI-8226 leukemia): 1.82 µM
- TGI (RPMI-8226 leukemia): 6.42 µM
- GI50 (UACC-257 melanoma): 3.12 µM
- TGI (UACC-257 melanoma): 10.2 µM
- GI50 (OVCAR-8 ovarian): 4.15 µM
- TGI (OVCAR-8 ovarian): > 14.3 µM
- GI50 (COLO 205 colon): 2.45 µM
- TGI (COLO 205 colon): 6.05 µM
- GI50 (HOP-92 NSCLC): 3.13 µM
- TGI (HOP-92 NSCLC): 12.9 µM
- GI50 (EKVX NSCLC): 3.71 µM
- TGI (EKVX NSCLC): > 14.3 µM
- GI50 (SK-MEL-5 melanoma): 4.98 µM
- TGI (SK-MEL-5 melanoma): > 14.3 µM
- GI50 (OVCAR-5 ovarian): 2.52 µM
- TGI (OVCAR-5 ovarian): 5.73 µM
- GI50 (T-47D breast): 3 µM
- TGI (T-47D breast): > 14.3 µM
- GI50 (MCF7 breast): 1.75 µM
- TGI (MCF7 breast): 6.3 µM
- GI50 (TK-10 renal): 3.92 µM
- TGI (TK-10 renal): 13 µM
- GI50 (UO-31 renal): 1.84 µM
- TGI (UO-31 renal): 3.74 µM
- GI50 (SF-295 CNS): 2.63 µM
- TGI (SF-295 CNS): 6.51 µM
- GI50 (A498 renal): 2.18 µM
- TGI (A498 renal): 4.17 µM
- GI50 (NCI-H226 lung): 3.96 µM
- TGI (NCI-H226 lung): > 14.3 µM
- GI50 (CCRF-CEM leukemia): 3.38 µM
- TGI (CCRF-CEM leukemia): > 14.3 µM
- GI50 (HT29 colon): 2.39 µM
- TGI (HT29 colon): 5.13 µM
- GI50 (HCT-15 colon): 1.61 µM
- TGI (HCT-15 colon): 5.39 µM
- GI50 (UACC-62 melanoma): 2.41 µM
- TGI (UACC-62 melanoma): 5.1 µM
- GI50 (NCI/ADR-RES ovarian): 4.03 µM
- TGI (NCI/ADR-RES ovarian): > 14.3 µM
- GI50 (NCI-H23 lung): 2.68 µM
- TGI (NCI-H23 lung): 6.47 µM
- GI50 (786-0 renal): 2.58 µM
- TGI (786-0 renal): 5.76 µM
- GI50 (SW-620 colon): 2.55 µM
- TGI (SW-620 colon): 5.88 µM
- GI50 (SF-539 CNS): 2.06 µM
- TGI (SF-539 CNS): 4.12 µM
- GI50 (U251 CNS): 1.72 µM
- TGI (U251 CNS): 4.08 µM
- GI50 (M14 melanoma): 2.78 µM
- TGI (M14 melanoma): 7 µM
- GI50 (NCI-H522 lung): 2.47 µM
- TGI (NCI-H522 lung): 4.83 µM
- GI50 (LOX IMVI melanoma): 0.962 µM
- TGI (LOX IMVI melanoma): 2.96 µM
- GI50 (HL-60(TB) leukemia): 3.4 µM
- TGI (HL-60(TB) leukemia): 11.6 µM
